Broadly, the GI50 is the concentration that inhibits growth by half. Read a low GI50 as greater sensitivity of the cells.

For data set [1], the system named is HT-29. Kind of data set: Growth inhibition of human HT-29 cells after 72 hrs by MTS-PMS assay. Type of data set: functional. Conditions: HT-29, 72 h. (In general: Tetrazolium dyes change colour on reduction, which living cells bring about.)
Data set [2] in a line: Growth inhibition of human U87MG cells after 72 hrs by MTS-PMS assay. In kind it is functional, U-87MG ATCC. Conditions: U-87 MG.
A short description of data set [3]: […] of hedgehog signaling in mouse C3H10T1/2 cells assessed as effect on GLI1 mRNA expression at 1 to 10 uM after 24 hrs by RT-PCR analysis in presence of oxysterol. Type of data set: cell-based. Conditions: C3H 10T1/2.
The target of data set [4] is T1, Vitamin D3 receptor (Mus musculus) (UniProt P48281).
T1 sequence (whole entry): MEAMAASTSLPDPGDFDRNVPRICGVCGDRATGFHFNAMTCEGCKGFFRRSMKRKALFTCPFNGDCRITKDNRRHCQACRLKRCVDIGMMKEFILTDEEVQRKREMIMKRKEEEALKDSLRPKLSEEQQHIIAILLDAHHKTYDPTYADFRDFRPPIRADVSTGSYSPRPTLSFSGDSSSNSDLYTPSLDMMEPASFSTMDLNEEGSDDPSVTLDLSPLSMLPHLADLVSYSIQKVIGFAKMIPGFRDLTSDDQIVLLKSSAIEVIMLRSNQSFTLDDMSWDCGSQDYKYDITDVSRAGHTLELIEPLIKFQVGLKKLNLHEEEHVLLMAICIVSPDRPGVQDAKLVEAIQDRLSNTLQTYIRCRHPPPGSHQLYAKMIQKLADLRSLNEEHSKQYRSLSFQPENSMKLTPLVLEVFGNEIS
Kind of data set: Activation of VDR in mouse C3H10T1/2 cells assessed as upregulation of CYP24A1 mRNA expression at 1 to 10 uM after 24 hrs by RT-PCR analysis. Type of data set: cell-based. Conditions: C3H 10T1/2.

The nature of data set [5]: […] of hedgehog signaling in mouse C3H10T1/2 cells assessed as downregulation of GLI1 mRNA expression at 5 uM after 24 hrs by RT-PCR analysis in presence of oxysterol. Type of data set: cell-based. Conditions: C3H 10T1/2.
Data set [6] has as its target T1, Vitamin D3 receptor (Mus musculus). Description: Activation of VDR in mouse C3H10T1/2 cells assessed as upregulation of CYP24A1 mRNA expression at 5 uM after 24 hrs by RT-PCR analysis relative to DMSO-treated control. Type of data set: cell-based. Conditions: C3H 10T1/2.
The subject of data set [7] is HT-29. Kind of data set: Ratio of GI50 for human U87MG cells to GI50 for human HT-29 cells. Type of data set: functional.
Data set [8] in a line: Cytotoxicity against mouse C3H10T1/2 cells at 10 uM after 24 hrs. Type of data set: cell-based. Conditions: c3h 10t1/2, 24 h.

Calls of active or inactive are those of the source. The rule behind the calls is not given here.

`C[C@H](COC(=O)c1ccncc1)[C@H]1CC[C@H]2[C@@H](O)CCC[C@]12C`: the GI50 in data set [1] and in data set [2] was above 100 µM throughout.
For the compound `COc1cccc(C(=O)OC[C@@H](C)[C@H]2CC[C@H]3[C@@H](O)CCC[C@]23C)c1`, the GI50 in data set [1] came out at 23.7 µM; in data set [2], 15.9 µM.
For the compound `C[C@H](COC(=O)C1CCC1)[C@H]1CC[C@H]2[C@@H](O)CCC[C@]12C`, the figures for the GI50 in data set [1] and in data set [2] were 27 µM and 27.1 µM, respectively.
As for `C[C@H](COC(=O)C(C)(C)C)[C@H]1CC[C@H]2[C@@H](O)CCC[C@]12C`, the figures for the GI50 in data set [1] and in data set [2] were 11.9 µM and 17.1 µM, respectively. Further, the outcome in data set [3] and in data set [4] was inactive.
With `C[C@H](COC(=O)C1CC1)[C@H]1CC[C@H]2[C@@H](O)CCC[C@]12C`, the GI50 is 82.6 µM in data set [1] and above 100 µM in data set [2].
The like results for `C[C@H](COC(=O)c1ccccn1)[C@H]1CC[C@H]2[C@@H](O)CCC[C@]12C` were, in that order, above 100 µM and above 100 µM.
The compound `C=C1CC[C@H](O)C/C1=C/C=C1\CCC[C@]2(C)[C@@H]([C@H](C)CCCC(C)C)CC[C@@H]12` [CHOLECALCIFEROL] returned a GI50 in data set [1] of 53.8 µM. In data set [5], the outcome was Active. Moreover, in data set [6], the fold change (FC) came to 8000.
Consider `C[C@H](CNC(=O)c1ccccc1O)[C@H]1CC[C@H]2[C@@H](O)CCC[C@]12C`, for which the GI50 in data set [1] was 68.2 µM; in data set [2], above 100 µM.
Turning to `CC(C)CC(=O)OC[C@@H](C)[C@H]1CC[C@H]2[C@@H](O)CCC[C@]12C`, the GI50 in data set [1] turned out to be 47.5 µM; in data set [2], 56 µM.
Consider `C[C@H](COC(=O)c1cccnc1)[C@H]1CC[C@H]2[C@@H](O)CCC[C@]12C`, for which the results for the GI50 in data set [1] and in data set [2] were 95.2 µM and above 100 µM, respectively.
Consider `C[C@H](CNC(=O)C1CCCCC1)[C@H]1CC[C@H]2[C@@H](O)CCC[C@]12C`, for which the 50% growth inhibitory concentration (GI50) in data set [1] is 84.1 µM; in data set [2], above 100 µM.
For `C[C@H](COC(=O)c1ccccc1)[C@H]1CC[C@H]2[C@@H](OC(=O)c3ccccc3)CCC[C@]12C`, the GI50 in data set [1] and in data set [2] was above 100 µM in each case.
For the compound `C[C@H](COC(=O)c1ccc(Cl)cc1)[C@H]1CC[C@H]2[C@@H](O)CCC[C@]12C`, the RatioGI50 in data set [7] stood at 2. Further, the GI50 in data set [1] was determined as 15.9 µM; in data set [2] it was 31.4 µM.
For the compound `COc1ccc(C(=O)OC[C@@H](C)[C@H]2CC[C@H]3[C@@H](O)CCC[C@]23C)cc1`, the 50% growth inhibitory concentration (GI50) in data set [1] is 39.8 µM; in data set [2] it was 33.1 µM.
Take `C[C@H](COC(=O)c1ccco1)[C@H]1CC[C@H]2[C@@H](O)CCC[C@]12C`: the GI50 in data set [1] is above 100 µM; in data set [2] it was 79.1 µM.
On to `COc1ccccc1C(=O)OC[C@@H](C)[C@H]1CC[C@H]2[C@@H](O)CCC[C@]12C`, for which the figures for the GI50 in data set [1] and in data set [2] were 35.7 µM and 56 µM, respectively.
`C[C@H](COC(=O)C1CCCCC1)[C@H]1CC[C@H]2[C@@H](O)CCC[C@]12C`: the values for the GI50 in data set [1] and in data set [2] were 15.2 µM and 11.2 µM, respectively. Also, the result in data set [3] and in data set [4] was inactive.
Regarding `C[C@H](COC(=O)c1ccc2ccccc2c1)[C@H]1CC[C@H]2[C@@H](O)CCC[C@]12C`, the GI50 in data set [1] is 19.8 µM; in data set [2] it was 51.3 µM.
For the compound `C[C@H](CN)[C@H]1CC[C@H]2[C@@H](O)CCC[C@]12C`, the GI50 in data set [1] and in data set [2] was above 100 µM throughout.
On to `C[C@H](COC(=O)c1ccccc1O)[C@H]1CC[C@H]2[C@@H](O)CCC[C@]12C`, for which the GI50 amounted to 14.1 µM in data set [1] and 18.8 µM in data set [2]. The Activity result in data set [8] is given as “Toxic”. Moreover, the result in data set [3] and in data set [4] was inactive.
In the case of `C[C@H](COC(=O)c1cccc(O)c1)[C@H]1CC[C@H]2[C@@H](O)CCC[C@]12C`, the GI50 in data set [1] worked out at 70.3 µM; in data set [2] it was 76.9 µM.
Turning to `C[C@H](COC(=O)c1ccc(O)cc1)[C@H]1CC[C@H]2[C@@H](O)CCC[C@]12C`, the concentration for 50% growth inhibition (GI50) in data set [1] is 41 µM; in data set [2], 67 µM.
In the case of `C[C@H](COC(=O)C1CCCC1)[C@H]1CC[C@H]2[C@@H](O)CCC[C@]12C`, the GI50 came to 22.1 µM in data set [1] and 21.7 µM in data set [2].
In the case of `C[C@H](COC(=O)c1cccc(Cl)c1)[C@H]1CC[C@H]2[C@@H](O)CCC[C@]12C`, the GI50 in data set [1] stood at 26.2 µM; in data set [2], 69 µM.
Take `C[C@H](COC(=O)c1cccc2ccccc12)[C@H]1CC[C@H]2[C@@H](O)CCC[C@]12C`: the GI50 in data set [1] was 35.3 µM; in data set [2], 39.2 µM.
As to `C[C@H](CNC(=O)c1ccc(Cl)cc1)[C@H]1CC[C@H]2[C@@H](O)CCC[C@]12C`, the results for the GI50 in data set [1] and in data set [2] were 32.3 µM and 42.9 µM, respectively.
Turning to `C[C@H](COC(=O)c1ccccc1)[C@H]1CC[C@H]2[C@@H](O)CCC[C@]12C`, the GI50 was found to be 22.6 µM in data set [1] and 24.6 µM in data set [2]. Further, the result in data set [4] was inactive.
In the case of `C[C@H](COC(=O)c1ccccc1Cl)[C@H]1CC[C@H]2[C@@H](O)CCC[C@]12C`, the 50% growth inhibitory concentration (GI50) in data set [1] stood at 14.4 µM; in data set [2], 46.8 µM.
